Data reported in US9587266B2, “Mutant luciferases” (University of Massachusetts, priority 2011, dated 2017).
Several values for one entry are separate records, joined by “and”; a condition that tells them apart may be missing. Identical values can stand only once.

Experiments:
F247L mutant luciferase = F247L mutant luciferase (Photinus pyralis, UniProt P08659, F247L); conditions: F247L mutant relative to wild-type luciferase
Procedure: (§1) The PCR product was cloned into the BamH1 and NotI sites of pGEX6P-1 for bacterial expression. Mutant proteins were created using the Quickchange site-directed mutagenesis kit (Stratagene). Saturating mutagenesis was performed using the used the degenerate codon NNK at sites predicted to impact or alter substrate biding including F247, T251, L286, S347, R337, R218, Q338, Y340, A313, and I351 using the degenerate codon NNK. The point mutants S347A, L286A, A348G, E311A, I351A, A313G, R337A, H245A and L342A were made independently.
(§2) Luminescence assays in 96-well plates were initiated by adding 30 μL 2× substrate in 20 mM Tris pH 7.6, 0.1 mM EDTA, 8 mM MgSO4, 4 mM ATP, and 1 mM TCEP to 30 μL of 20 nM purified luciferase in 20 mM Tris pH 7.6, 0.1 mM EDTA, 1 mM TCEP and 0.4 mg/mL BSA. Titration assays were performed 3 minutes post-substrate addition in a Turner Veritas luminometer with final substrate concentrations ranging from 0.122-250 μM or 0.244-500 μM.

R218K mutant luciferase = molecular target: T1, R218K mutant luciferase (Photinus pyralis, UniProt P08659, R218K); type: biochemical; conditions: R218K luciferase, purified protein
T1 construct: The full firefly (Photinus pyralis) luciferase gene was PCR amplified from pGL3 (Promega); GST (N, cleaved yes); made in house; host or cells: E. coli JM109
T1 sequence (P08659 whole entry R218K): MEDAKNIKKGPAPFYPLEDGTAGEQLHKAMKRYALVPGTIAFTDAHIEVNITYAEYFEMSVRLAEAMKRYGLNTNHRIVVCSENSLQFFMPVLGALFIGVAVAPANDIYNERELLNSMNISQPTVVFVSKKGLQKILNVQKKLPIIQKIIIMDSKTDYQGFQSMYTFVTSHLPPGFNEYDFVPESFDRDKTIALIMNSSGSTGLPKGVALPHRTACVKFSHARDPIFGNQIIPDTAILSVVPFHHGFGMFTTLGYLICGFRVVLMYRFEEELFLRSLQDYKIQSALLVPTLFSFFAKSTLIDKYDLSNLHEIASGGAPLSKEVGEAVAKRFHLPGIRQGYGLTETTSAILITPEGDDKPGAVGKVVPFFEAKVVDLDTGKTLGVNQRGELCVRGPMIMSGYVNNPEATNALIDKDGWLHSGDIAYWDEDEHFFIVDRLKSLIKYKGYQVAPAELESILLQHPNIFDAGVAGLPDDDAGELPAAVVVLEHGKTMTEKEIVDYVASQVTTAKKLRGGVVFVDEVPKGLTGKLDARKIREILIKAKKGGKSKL
Procedure: as §1, with “NNK.” for “NNK. The point mutants S347A, L286A, A348G, E311A, I351A, A313G, R337A, H245A and L342A were made independently.”
(§3) Luminescence assays in 96-well plates were initiated by adding 30 μL 2× substrate in 20 mM Tris pH 7.6, 0.1 mM EDTA, 8 mM MgSO4, 4 mM ATP, and 1 mM TCEP to 30 μL of 20 nM purified luciferase in 20 mM Tris pH 7.6, 0.1 mM EDTA, 1 mM TCEP and 0.4 mg/mL BSA.

S347A mutant luciferase = molecular target: T2, S347A mutant luciferase (Photinus pyralis, UniProt P08659, S347A); type: biochemical; conditions: for Apparent Vmax: purified protein
T2 construct: The full firefly (Photinus pyralis) luciferase gene was PCR amplified from pGL3 (Promega); GST (N, cleaved yes); made in house; host or cells: E. coli JM109
T2 sequence (P08659 whole entry S347A): as the sequence (P08659 whole entry R218K) above, with K218R, S347A counted along it
Procedure: as §1, with “NNK.” for “NNK. The point mutants S347A, L286A, A348G, E311A, I351A, A313G, R337A, H245A and L342A were made independently.”
as §3

WT luciferase [1] = molecular target: T3, WT luciferase (Photinus pyralis, UniProt P08659); test: Titration assay with purified protein; type: biochemical
T3 construct: The full firefly (Photinus pyralis) luciferase gene was PCR amplified from pGL3 (Promega); GST (N, cleaved yes); made in house; host or cells: E. coli JM109
T3 sequence (P08659 whole entry): as the sequence (P08659 whole entry R218K) above, with K218R counted along it
Procedure: as §1, §2

L286M mutant luciferase = molecular target: T4, L286M mutant luciferase (Photinus pyralis, UniProt P08659, L286M); test: Titration assay with purified protein; type: biochemical
T4 construct: The full firefly (Photinus pyralis) luciferase gene was PCR amplified from pGL3 (Promega); GST (N, cleaved yes); made in house; host or cells: E. coli JM109
T4 sequence (P08659 whole entry L286M): as the sequence (P08659 whole entry R218K) above, with K218R, L286M counted along it
Procedure: as §1, with “NNK.” for “NNK. The point mutants S347A, L286A, A348G, E311A, I351A, A313G, R337A, H245A and L342A were made independently.”
as §3

T251S mutant luciferase = molecular target: T5, T251S mutant luciferase (Photinus pyralis, UniProt P08659, T251S); test: Titration assay with purified protein; type: biochemical
T5 construct: The full firefly (Photinus pyralis) luciferase gene was PCR amplified from pGL3 (Promega); GST (N, cleaved yes); made in house; host or cells: E. coli JM109
T5 sequence (P08659 whole entry T251S): as the sequence (P08659 whole entry R218K) above, with K218R, T251S counted along it
Procedure: as §1, with “NNK.” for “NNK. The point mutants S347A, L286A, A348G, E311A, I351A, A313G, R337A, H245A and L342A were made independently.”
as §3

F247L L286M luciferase = molecular target: T6, F247L L286M luciferase (Photinus pyralis, UniProt P08659, F247L/L286M); test: Bioluminescence emission scan; type: biochemical
T6 construct: The full firefly (Photinus pyralis) luciferase gene was PCR amplified from pGL3 (Promega); GST (N, cleaved yes); made in house; host or cells: E. coli JM109
T6 sequence (P08659 whole entry F247L/L286M): as the sequence (P08659 whole entry R218K) above, with K218R, F247L, L286M counted along it
Procedure: (§4) Purified mutant luciferases were used in bioluminescence emission and burst kinetics scans.
(§5) Luciferase was rapidly injected into a cuvette containing substrate, and the emission from 400-800 nm was recorded in a SPEX FluoroMax-3 fluorimeter with closed excitation slits.

L342A luciferase = molecular target: T7, L342A luciferase (Photinus pyralis, UniProt P08659, L342A); test: Bioluminescence emission scan; type: biochemical
T7 construct: The full firefly (Photinus pyralis) luciferase gene was PCR amplified from pGL3 (Promega); GST (N, cleaved yes); made in house; host or cells: E. coli JM109
T7 sequence (P08659 whole entry L342A): as the sequence (P08659 whole entry R218K) above, with K218R, L342A counted along it
Procedure: as §4, §5

R218K luciferase = molecular target: T8, R218K luciferase (Photinus pyralis, UniProt P08659, R218K); test: Bioluminescence emission scan; type: biochemical
T8 construct: The full firefly (Photinus pyralis) luciferase gene was PCR amplified from pGL3 (Promega); GST (N, cleaved yes); made in house; host or cells: E. coli JM109
T8 sequence (P08659 whole entry R218K): as the sequence (P08659 whole entry R218K) above
Procedure: as §4, §5

T251S L286M luciferase = molecular target: T9, T251S L286M luciferase (Photinus pyralis, UniProt P08659, L286M/T251S); test: Bioluminescence emission scan; type: biochemical
T9 construct: The full firefly (Photinus pyralis) luciferase gene was PCR amplified from pGL3 (Promega); GST (N, cleaved yes); made in house; host or cells: E. coli JM109
T9 sequence (P08659 whole entry T251S/L286M): as the sequence (P08659 whole entry R218K) above, with K218R, T251S, L286M counted along it
Procedure: as §4, §5

S347A luciferase = molecular target: T10, S347A luciferase (Photinus pyralis, UniProt P08659, S347A); test: Bioluminescence emission scan; type: biochemical
T10 construct: The full firefly (Photinus pyralis) luciferase gene was PCR amplified from pGL3 (Promega); GST (N, cleaved yes); made in house; host or cells: E. coli JM109
T10 sequence (P08659 whole entry S347A): as the sequence (P08659 whole entry R218K) above, with K218R, S347A counted along it
Procedure: as §4, §5

S347T luciferase = molecular target: T11, S347T luciferase (Photinus pyralis, UniProt P08659, S347T); test: Bioluminescence emission scan; type: biochemical
T11 construct: The full firefly (Photinus pyralis) luciferase gene was PCR amplified from pGL3 (Promega); GST (N, cleaved yes); made in house; host or cells: E. coli JM109
T11 sequence (P08659 whole entry S347T): as the sequence (P08659 whole entry R218K) above, with K218R, S347T counted along it
Procedure: as §4, §5

L286M + S347A luciferase = molecular target: T12, L286M + S347A luciferase (Photinus pyralis, UniProt P08659, L286M/S347A); test: Bioluminescence emission scan; type: biochemical
T12 construct: The full firefly (Photinus pyralis) luciferase gene was PCR amplified from pGL3 (Promega); GST (N, cleaved yes); made in house; host or cells: E. coli JM109
T12 sequence (P08659 whole entry L286M/S347A): as the sequence (P08659 whole entry R218K) above, with K218R, L286M, S347A counted along it
Procedure: as §4, §5

WT luciferase [2] = molecular target: T3, WT luciferase; type: biochemical; conditions: for Wavelength at Max. Emission: Table 2
Procedure: (§6) Purified mutant luciferases were used in bioluminescence emission and burst kinetics scans. Each purified protein in 20 mM Tris pH 7.6, 0.1 mM EDTA, 1 mM TCEP and 0.4 mg/mL BSA was added to 2× substrate in 20 mM Tris pH 7.6, 0.1 mM EDTA, 8 mM MgSO4, 4 mM ATP, and 1 mM TCEP in a cuvette.
as §5

R218K + L342A luciferase = molecular target: T13, R218K + L342A luciferase (Photinus pyralis, UniProt P08659, L342A/R218K); type: biochemical
T13 construct: The full firefly (Photinus pyralis) luciferase gene was PCR amplified from pGL3 (Promega); GST (N, cleaved yes); made in house; host or cells: E. coli JM109
T13 sequence (P08659 whole entry R218K/L342A): as the sequence (P08659 whole entry R218K) above, with L342A counted along it
Procedure: as §6, §5

F247V luciferase = molecular target: T14, F247V luciferase (Photinus pyralis, UniProt P08659, F247V); test: Bioluminescence emission scan; type: biochemical
T14 construct: The full firefly (Photinus pyralis) luciferase gene was PCR amplified from pGL3 (Promega); GST (N, cleaved yes); made in house; host or cells: E. coli JM109
T14 sequence (P08659 whole entry F247V): as the sequence (P08659 whole entry R218K) above, with K218R, F247V counted along it
Procedure: as §4, §5

T251Q luciferase = molecular target: T15, T251Q luciferase (Photinus pyralis, UniProt P08659, T251Q); test: Bioluminescence emission scan; type: biochemical
T15 construct: The full firefly (Photinus pyralis) luciferase gene was PCR amplified from pGL3 (Promega); GST (N, cleaved yes); made in house; host or cells: E. coli JM109
T15 sequence (P08659 whole entry T251Q): as the sequence (P08659 whole entry R218K) above, with K218R, T251Q counted along it
Procedure: as §4, §5

T251S luciferase = molecular target: T16, T251S luciferase (Photinus pyralis, UniProt P08659, T251S); test: Bioluminescence emission scan; type: biochemical
T16 construct: The full firefly (Photinus pyralis) luciferase gene was PCR amplified from pGL3 (Promega); GST (N, cleaved yes); made in house; host or cells: E. coli JM109
T16 sequence (P08659 whole entry T251S): as the sequence (P08659 whole entry R218K) above, with K218R, T251S counted along it
Procedure: as §4, §5

F247S luciferase = molecular target: T17, F247S luciferase (Photinus pyralis, UniProt P08659, F247S); test: Bioluminescence emission scan; type: biochemical
T17 construct: The full firefly (Photinus pyralis) luciferase gene was PCR amplified from pGL3 (Promega); GST (N, cleaved yes); made in house; host or cells: E. coli JM109
T17 sequence (P08659 whole entry F247S): as the sequence (P08659 whole entry R218K) above, with K218R, F247S counted along it
Procedure: as §4, §5

T251N luciferase = molecular target: T18, T251N luciferase (Photinus pyralis, UniProt P08659, T251N); test: Bioluminescence emission scan; type: biochemical
T18 construct: The full firefly (Photinus pyralis) luciferase gene was PCR amplified from pGL3 (Promega); GST (N, cleaved yes); made in house; host or cells: E. coli JM109
T18 sequence (P08659 whole entry T251N): as the sequence (P08659 whole entry R218K) above, with K218R, T251N counted along it
Procedure: as §4, §5

L286Y luciferase = molecular target: T19, L286Y luciferase (Photinus pyralis, UniProt P08659, L286Y); test: Bioluminescence emission scan; type: biochemical
T19 construct: The full firefly (Photinus pyralis) luciferase gene was PCR amplified from pGL3 (Promega); GST (N, cleaved yes); made in house; host or cells: E. coli JM109
T19 sequence (P08659 whole entry L286Y): as the sequence (P08659 whole entry R218K) above, with K218R, L286Y counted along it
Procedure: as §4, §5

F247A luciferase = molecular target: T20, F247A luciferase (Photinus pyralis, UniProt P08659, F247A); test: Bioluminescence emission scan; type: biochemical
T20 construct: The full firefly (Photinus pyralis) luciferase gene was PCR amplified from pGL3 (Promega); GST (N, cleaved yes); made in house; host or cells: E. coli JM109
T20 sequence (P08659 whole entry F247A): as the sequence (P08659 whole entry R218K) above, with K218R, F247A counted along it
Procedure: as §4, §5

L286M luciferase = molecular target: T21, L286M luciferase (Photinus pyralis, UniProt P08659, L286M); test: Bioluminescence emission scan; type: biochemical
T21 construct: The full firefly (Photinus pyralis) luciferase gene was PCR amplified from pGL3 (Promega); GST (N, cleaved yes); made in house; host or cells: E. coli JM109
T21 sequence (P08659 whole entry L286M): as the sequence (P08659 whole entry R218K) above, with K218R, L286M counted along it
Procedure: as §4, §5

F247R luciferase = molecular target: T22, F247R luciferase (Photinus pyralis, UniProt P08659, F247R); test: Bioluminescence emission scan; type: biochemical
T22 construct: The full firefly (Photinus pyralis) luciferase gene was PCR amplified from pGL3 (Promega); GST (N, cleaved yes); made in house; host or cells: E. coli JM109
T22 sequence (P08659 whole entry F247R): as the sequence (P08659 whole entry R218K) above, with K218R, F247R counted along it
Procedure: as §4, §5

[3] = read-out: Apparent Km, 3 minutes post-substrate addition

Chain of F247L mutant luciferase (P08659 whole entry F247L): as the sequence (P08659 whole entry R218K) above, with K218R, F247L counted along it

With `Nc1ccc2nc(C3=N[C@@H](C(=O)O)CS3)sc2c1` [6′-NH2LH2, 6′-aminoluciferin] the “improvement of maximal sustained light emission” value (F247L mutant luciferase) was 4.9 fold and > 5 fold, the “Apparent Vmax” value (R218K mutant luciferase) was 157 ± 3.7 ×10^−5 cps and the “Apparent Vmax” value (S347A mutant luciferase) was 91 ± 0.4 ×10^−5 cps. The “Apparent Vmax” value (WT luciferase [1]) was 35 ± 0.25 ×10^−5 cps, the “Apparent Vmax” value (L286M mutant luciferase) was 62 ± 0.7 ×10^−5 cps and the “Apparent Vmax” value (T251S mutant luciferase) was 51 ± 0.3 ×10^−5 cps. The “Wavelength at Max. Emission” value (F247L L286M luciferase) was 592 nm, the “Maximum Emission Wavelength of Selected Substrate” value (L342A luciferase) was 591 nm and the “Maximum Emission Wavelength of Selected Substrate” value (R218K luciferase) was 599 nm. The “Wavelength at Max. Emission” value (T251S L286M luciferase) was 602 nm, the “Wavelength at Max. Emission” value (S347A luciferase) was 591 nm and the “Wavelength at Max. Emission” value (S347T luciferase) was 583 nm. The “Maximum Emission Wavelength of Selected Substrate” value (L286M + S347A luciferase) was 589 nm, the “Wavelength at Max. Emission” value (WT luciferase [2]) was 595 nm and the “Maximum Emission Wavelength of Selected Substrate” value (WT luciferase [2]; Table 3) was 594 nm. For the same compound, the “Maximum Emission Wavelength of Selected Substrate” value (R218K + L342A luciferase) was 594 nm.

For `O=C(O)[C@H]1CSC(c2nc3ccc(O)cc3s2)=N1` [D-Luciferin, D-luciferin], the “Apparent Vmax” value (R218K mutant luciferase) was 1541 ± 21 ×10^−5 cps, the Km (R218K mutant luciferase; [3]) was 106 ± 2.6 µM and the “Apparent Vmax” value (S347A mutant luciferase) was 142.8 ± 3 ×10^−5 cps. The Km (S347A mutant luciferase; read-out: Apparent Km, purified protein, 3 minutes post-substrate addition) was 76.6 ± 3.1 µM, the “Apparent Vmax” value (WT luciferase [1]) was 1079 ± 13 ×10^−5 cps and the “Apparent Vmax” value (L286M mutant luciferase) was 1060 ± 26 ×10^−5 cps. The Km (L286M mutant luciferase; [3]) was 19.1 ± 1.3 µM, the “Apparent Vmax” value (T251S mutant luciferase) was 1054 ± 19 ×10^−5 cps and the Km (T251S mutant luciferase; [3]) was 114 ± 3.4 µM. The “Wavelength at Max. Emission” value (F247V luciferase) was 600 nm, the “Wavelength at Max. Emission” value (T251Q luciferase) was 626 nm and the “Wavelength at Max. Emission” value (T251S luciferase) was 553 nm. The “Wavelength at Max. Emission” value (F247S luciferase) was 588 nm, the “Wavelength at Max. Emission” value (T251N luciferase) was 555 nm and the “Wavelength at Max. Emission” value (S347A luciferase) was 573 nm. For the same compound, the “Wavelength at Max. Emission” value (L286Y luciferase) was 606 nm, the “Wavelength at Max. Emission” value (F247A luciferase) was 591 nm and the “Wavelength at Max. Emission” value (S347T luciferase) was 561 nm. The “Wavelength at Max. Emission” value (L286M luciferase) was 564 nm, the “Wavelength at Max. Emission” value (F247R luciferase) was 605 nm and the “Wavelength at Max. Emission” value (WT luciferase [2]) was 554 nm.
